# Measured values published in US11090304B2 (Amgen Inc., priority 2018, dated 2021).
# Key:
# [1] = biological target: GDP-bound KRAS protein (aa 1-169), containing both G12C and C118A amino acid substitutions (Homo sapiens, UniProt P01116, C118A/G12C); assay: Coupled nucleotide exchange assay (SOS-mediated, AlphaScreen); assay type: biochemical; settings: 5 min compound pre-incubation
# [2] = test system: Phosphorylation of ERK1/2 in MIA PaCa-2 cells; assay: Phospho-ERK1/2 MSD assay in MIA PaCa-2 cells; assay type: cell-based; settings: Homo sapiens, MIA PaCa-2, 2 h, read-out: p-ERK IC50 (2 h; MIA PaCa-2), 2 h compound treatment
# How it was run: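 MSD electrochemiluminescence readout of phospho-ERK1/2 in whole-cell lysates, IC50 by 4-parameter logistic fit. Compound titrations were applied for 2 or 4 h at 37 °C, 5% CO2, followed by 10 ng/mL EGF stimulation for 10 min before lysis.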
# GDP-bound KRAS protein (aa 1-169), containing both G12C and C118A amino acid substitutions, sequence (P01116 1-169 isoform P01116-2 G12C/C118A): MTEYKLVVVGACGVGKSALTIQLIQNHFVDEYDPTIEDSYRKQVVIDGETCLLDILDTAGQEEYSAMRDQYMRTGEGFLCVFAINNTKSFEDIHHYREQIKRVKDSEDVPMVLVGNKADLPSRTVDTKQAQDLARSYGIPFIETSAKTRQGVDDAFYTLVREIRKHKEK
Coupled exchange IC50 (5 min) [1],IC50 [2] [nM],SMILES
0.218 | nda μM,158,"C=CC(=O)N1CCN(c2nc(=O)n(-c3ccccc3C(C)C)c3nc(-c4ccc(F)cc4O)c(Cl)cc23)[C@@H](C)C1 [Example 54-77, 6-chloro-7-(4-fluoro-2-hydroxy-phenyl)-4-((2S)-2-methyl-4-(2-propenoyl)-1-piperazinyl)-1-(2-(2-propanyl)phenyl)pyrido [2,3-d]pyrimidin-2(1H)-one]"
0.326 | nda μM,171,"C=CC(=O)N1CCN(c2nc(=O)n(-c3ccccc3C(C)C)c3nc(-c4cc(F)ccc4O)c(Cl)cc23)[C@@H](C)C1 [Example 54-78, 6-chloro-7-(5-fluoro-2-hydroxyphenyl)-4-((2S)-2-methyl-4-(2-propenoyl)-1-piperazinyl)-1-(2-(2-propanyl)phenyl)pyrido [2,3-d]pyrimidin-2(1H)-one]"
0.072 | nda μM,98,"C=CC(=O)N1CCN(c2nc(=O)n(-c3ccccc3C(C)C)c3nc(-c4c(O)cccc4Cl)c(Cl)cc23)[C@@H](C)C1 [Example 54-79, 6-chloro-7-(2-chloro-6-hydroxy-phenyl)-4-((2S)-2-methyl-4-(2-propenoyl)-1-piperazinyl)-1-(2-(2-propanyl)phenyl)pyrido [2,3-d]pyrimidin-2(1H)-one]"
0.271 | nda μM,212,"C=CC(=O)N1CCN(c2nc(=O)n(-c3ccccc3C(C)C)c3nc(-c4cc(OC)ccc4Cl)c(Cl)cc23)[C@@H](C)C1 [Example 54-89, 6-chloro-7-(2-chloro-5-methoxy-phenyl)-4-((2S)-2-methyl-4-(2-propenoyl)-1-piperazinyl)-1-(2-(2-propanyl)phenyl)pyrido [2,3-d]pyrimidin-2(1H)-one]"
0.105 | nda μM,121,"C=CC(=O)N1CCN(c2nc(=O)n(-c3ccccc3C(C)C)c3nc(-c4cc(O)ccc4Cl)c(Cl)cc23)[C@@H](C)C1 [Example 54-90, 6-chloro-7-(2-chloro-5-hydroxy-phenyl)-4-((2S)-2-methyl-4-(2-propenoyl)-1-piperazinyl)-1-(2-(2-propanyl)phenyl)pyrido [2,3-d]pyrimidin-2(1H)-one]"
0.033 | nda μM,39,"C=CC(=O)N1CCN(c2nc(=O)n(-c3ccccc3C(C)C)c3nc(-c4cc(O)cc(Cl)c4Cl)c(Cl)cc23)[C@@H](C)C1 [Example 54-91, 6-chloro-7-(2,3-dichloro-5-hydroxy-phenyl)-4-((2S)-2-methyl-4-(2-propenoyl)-1-piperazinyl)-1-(2-(2-propanyl)phenyl)pyrido [2,3-d]pyrimidin-2(1H)-one]"
0.756 | nda μM,821,"C=CC(=O)N1CCN(c2nc(=O)n(-c3ccccc3C(C)C)c3nc(-c4cc(N)ncc4Cl)c(Cl)cc23)[C@@H](C)C1 [Example 54-95, 7-(2-amino-5-chloro-4-pyridinyl)-6-chloro-4-((2S)-2-methyl-4-(2-propenoyl)-1-piperazinyl)-1-(2-(2-propanyl)phenyl)pyrido [2,3-d]pyrimidin-2(1H)-one]"
0.676 | nda μM,363,"C=CC(=O)N1CCN(c2nc(=O)n(-c3ccccc3C(C)C)c3nc(-c4cccnc4N)c(Cl)cc23)[C@@H](C)C1 [Example 54-96, 7-(2-amino-3-pyridinyl)-6-chloro-4-((2S)-2-methyl-4-(2-propenoyl)-1-piperazinyl)-1-(2-(2-propanyl)phenyl)pyrido [2,3-d]pyrimidin-2(1H)-one]"
0.128 | nda μM,256,"C=CC(=O)N1CCN(c2nc(=O)n(-c3ccccc3C3(C)CC3)c3nc(-c4c(O)cccc4F)c(Cl)cc23)[C@@H](C)C1 [Example 54-97, 6-chloro-7-(2-fluoro-6-hydroxyphenyl)-1-(2-(1-methylcyclopropyl)phenyl)-4-((2S)-2-methyl-4-(2-propenoyl)-1-piperazinyl) pyrido[2,3-d]pyrimidin-2(1H)-one]"
0.153 | nda μM,294,"C=CC(=O)N1CCN(c2nc(=O)n(-c3ccccc3C3(C)CC3)c3nc(-c4ccccc4F)c(Cl)cc23)[C@@H](C)C1 [Example 54-99, 6-chloro-7-(2-fluorophenyl)-1-(2-(1-methylcyclopropyl)phenyl)-4-((2S)-2-methyl-4-(2-propenoyl)-1-piperazinyl) pyrido[2,3-d]pyrimidin-2(1H)-one]"
0.162 | nda μM,157,"C=CC(=O)N1CCN(c2nc(=O)n(-c3ncccc3CC(C)C)c3nc(-c4c(O)cccc4F)c(Cl)cc23)[C@@H](C)C1 [Example 54-101, 6-chloro-7-(2-fluoro-6-hydroxyphenyl)-4-((2S)-2-methyl-4-(2-propenoyl)-1-piperazinyl)-1-(3-(2-methylpropyl)-2-pyridinyl) pyrido[2,3-d]pyrimidin-2(1H)-one]"

# Continued, compound first:
SMILES,Coupled exchange IC50 (5 min) [1],IC50 [2] [nM]
"C=CC(=O)N1CCN(c2nc(=O)n(-c3nccnc3CC)c3nc(-c4ccccc4F)c(Cl)cc23)[C@@H](C)C1 [Example 54-38, 6-chloro-1-(3-ethyl-2-pyrazinyl)-7-(2-fluorophenyl)-4-((2S)-2-methyl-4-(2-propenoyl)-1-piperazinyl) pyrido[2,3-d]pyrimidin-2(1H)-one]",0.651 | nda μM,297
"C=CC(=O)N1CCN(c2nc(=O)n(-c3ccccc3N(C)C)c3nc(-c4c(O)cccc4F)c(Cl)cc23)[C@@H](C)C1 [Example 54-42, 6-chloro-1-(2-(dimethylamino)phenyl)-7-(2-fluoro-6-hydroxyphenyl)-4-((2S)-2-methyl-4-(2-propenoyl)-1-piperazinyl) pyrido[2,3-d]pyrimidin-2(1H)-one]",0.79 | nda μM,322
"C=CC(=O)N1CCN(c2nc(=O)n(-c3ccccc3C(C)C)c3nc(-c4cc(OC(F)F)ccc4F)c(Cl)cc23)[C@@H](C)C1 [Example 54-51, 6-chloro-7-(5-(difluoromethoxy)-2-fluorophenyl)-4-((2S)-2-methyl-4-(2-propenoyl)-1-piperazinyl)-1-(2-(2-propanyl)phenyl)pyrido [2,3-d]pyrimidin-2(1H)-one]",0.265 | nda μM,204
"C=CC(=O)N1CCN(c2nc(=O)n(-c3nonc3C(C)C)c3nc(-c4c(O)cccc4F)c(Cl)cc23)[C@@H](C)C1 [Example 54-52, 6-chloro-7-(2-fluoro-6-hydroxyphenyl)-4-((2S)-2-methyl-4-(2-propenoyl)-1-piperazinyl)-1-(4-(2-propanyl)-1,2,5-oxadiazol-3-yl)pyrido[2,3-d]pyrimidin-2(1H)-one]",0.445 | nda μM,666
"C=CC(=O)N1CCN(c2nc(=O)n(-c3ncc(C#N)cc3CC)c3nc(-c4c(O)cccc4F)c(Cl)cc23)[C@@H](C)C1 [Example 54-53, 6-(6-chloro~7-(2-fluoro-6-hydroxyphenyl)-4-((2S)-2-methyl-4-(2-propenoyl)-1-piperazinyl)-2-oxopyrido[2,3-d]pyrimidin-1(2H)-yl)-5-ethyl-3-pyridine-carbonitrile]",0.193 | nda μM,593
"C=CC(=O)N1CCN(c2nc(=O)n(-c3cncnc3C3(C)CC3)c3nc(-c4ccccc4F)c(Cl)cc23)[C@@H](C)C1 [Example 54-54, 6-chloro-7-(2-fluorophenyl)-1-(4-(1-methyl-cyclopropyl)-5-pyrimidinyl)-4-((2S)-2-methyl-4-(2-propenoyl)-1-piperazinyl) pyrido[2,3-d]pyrimidin-2(1H)-one]",0.377 | nda μM,360
"C=CC(=O)N1CCN(c2nc(=O)n(-c3cncnc3C3(C)CC3)c3nc(-c4c(O)cccc4F)c(Cl)cc23)[C@@H](C)C1 [Example 54-55, 6-chloro-7-(2-fluoro-6-hydroxyphenyl)-1-(4-(1-methyl-cyclopropyl)-5-pyrimidinyl)-4-((2S)-2-methyl-4-(2-propenoyl)-1-piperazinyl) pyrido[2,3-d]pyrimidin-2(1H)-one]",0.133 | nda μM,578
"C=CC(=O)N1CCN(c2nc(=O)n(-c3c(C)cnn3C(C)C)c3nc(-c4ccc(F)cc4F)c(Cl)cc23)[C@@H](C)C1 [Example 54-71, 6-chloro-7-(2,4-difluorophenyl)-1-(4-methyl-1-(2-propanyl)-1H-pyrazol-5-yl)-4-((2S)-2-methyl-4-(2-propenoyl)-1-piperazinyl) pyrido[2,3-d]pyrimidin-2(1H)-one]",0.174 | nda μM,164
"C=CC(=O)N1CCN(c2nc(=O)n(-c3c(C(C)C)n[nH]c3C(C)C)c3nc(-c4ccccc4F)c(Cl)cc23)[C@@H](C)C1 [Example 54-72, 6-chloro-1-(3,5-di(2-propanyl)-1H-pyrazol-4-yl)-7-(2-fluorophenyl)-4-((2S)-2-methyl-4-(2-propenoyl)-1-piperazinyl) pyrido[2,3-d]pyrimidin-2(1H)-one]",0.108 | nda μM,183
"C=CC(=O)N1CCN(c2nc(=O)n(-c3c(OC)cccc3C(C)C)c3nc(-c4c(O)cccc4F)c(Cl)cc23)[C@@H](C)C1 [Example 54-73, 6-chloro-7-(2-fluoro-6-hydroxy-phenyl)-1-(2-methoxy-6-(2-propanyl)phenyl)-4-((2S)-2-methyl-4-(2-propenoyl)-1-piperazinyl) pyrido[2,3-d]pyrimidin-2(1H)-one]",0.062 | nda μM,64
"C=CC(=O)N1CCN(c2nc(=O)n(-c3ccccc3-c3ccccc3)c3nc(-c4c(O)cccc4F)c(Cl)cc23)[C@@H](C)C1 [Example 54-74, 1-([biphenyl]-2-yl)-6-chloro-7-(2-fluoro-6-hydroxyphenyl)-4-((2S)-2-methyl-4-(2-propenoyl)-1-piperazinyl) pyrido[2,3-d]pyrimidin-2(1H)-one]",0.582 | nda μM,926
